What was measured:
[1] = tested on: Mycobacterium smegmatis ATCC 607; experiment: Antimicrobial activity against Mycobacterium smegmatis ATCC 607 (agar plate-cylinder); format: cell-based; conditions: standard bleomycin A2 (copper-free) assumed 1,000 mcg potency/mg
Procedure: (§1) 2. ANT[…] MYC[…] ATCC 607 AND BACILLUS SUBTILIS
(§2) The antimicrobial activity was tested against the captioned test organisms by the method of agar plate-cylinder. The activity was recorded on the assumption that the activity of standard sample of bleomycin A2 (copper-free form) is 1,000 mcg poteney/mg.

Bacillus subtilis = experiment: Antimicrobial activity against Bacillus subtilis (agar plate-cylinder); format: cell-based; conditions: standard bleomycin A2 (copper-free) assumed 1,000 mcg potency/mg
Procedure: as §1, §2

Row | Structure (SMILES) | Antimicrobial potency of Cu-free compound against Mycobacterium smegmatis ATCC 607 [1] | Antimicrobial potency of Cu-free compound against Bacillus subtilis (Bacillus subtilis)
1 | Cc1c(N)nc(C(CC(N)=O)NCC(N)C(=O)NCc2ccc(Cl)cc2)nc1C(=O)NC(C(=O)NC(C)C(O)C(C)C(=O)NC(C(=O)NCCc1nc(-c2nc(C(=O)NCCCNC(C)c3ccccc3)cs2)cs1)C(C)O)C(OC1OC(CO)C(O)C(O)C1OC1OC(CO)C(O)C(OC(N)=O)C1O)c1cnc[nH]1 [Compound 24, 3-((S)-1'-phenylethyl)aminopropylamino-(amido)N--[p-chlorobenzyl]-BLM] | 56328 mcg potency/mg | 1184 mcg potency/mg
2 | CCCCCCCCCCCCCCCCCCNC(=O)C(N)CNC(CC(N)=O)c1nc(N)c(C)c(C(=O)NC(C(=O)NC(C)C(O)C(C)C(=O)NC(C(=O)NCCc2nc(-c3nc(C(=O)NCCCNC(C)c4ccccc4)cs3)cs2)C(C)O)C(OC2OC(CO)C(O)C(O)C2OC2OC(CO)C(O)C(OC(N)=O)C2O)c2cnc[nH]2)n1 [Compound 25, 3-((S)-1'-phenylethylamino)propylamino-(amido)N--[stearyl]-BLM] | 210 mcg potency/mg | 0 mcg potency/mg
3 | CCCCCCCCCCCCNC(=O)C(N)CNC(CC(N)=O)c1nc(N)c(C)c(C(=O)NC(C(=O)NC(C)C(O)C(C)C(=O)NC(C(=O)NCCc2nc(-c3nc(C(=O)NCCCNC(C)c4ccccc4)cs3)cs2)C(C)O)C(OC2OC(CO)C(O)C(O)C2OC2OC(CO)C(O)C(OC(N)=O)C2O)c2cnc[nH]2)n1 [Compound 26, 3-((S)-1'-phenylethylamino)propylamino-(amido)N--[lauryl]-BLM] | 3920 mcg potency/mg | 384 mcg potency/mg
4 | CCCCCCCCNC(=O)C(N)CNC(CC(N)=O)c1nc(N)c(C)c(C(=O)NC(C(=O)NC(C)C(O)C(C)C(=O)NC(C(=O)NCCc2nc(-c3nc(C(=O)NCCCNC(C)c4ccccc4)cs3)cs2)C(C)O)C(OC2OC(CO)C(O)C(O)C2OC2OC(CO)C(O)C(OC(N)=O)C2O)c2cnc[nH]2)n1 [Compound 27, 3-((S)-1'-phenylethylamino)propylamino-(amido)N--[octyl]-BLM] | 45100 mcg potency/mg | 886 mcg potency/mg
5 | COc1ccc2[nH]cc(CCNC(=O)C(N)CNC(CC(N)=O)c3nc(N)c(C)c(C(=O)NC(C(=O)NC(C)C(O)C(C)C(=O)NC(C(=O)NCCc4nc(-c5nc(C(=O)NCCCNC(C)c6ccccc6)cs5)cs4)C(C)O)C(OC4OC(CO)C(O)C(O)C4OC4OC(CO)C(O)C(OC(N)=O)C4O)c4cnc[nH]4)n3)c2c1 [Compound 28, 3-((S)-1'-phenylethylamino)propylamino-(amido)N--[5-methyoxyindol-3-ylethyl]-BLM] | 18650 mcg potency/mg | 586 mcg potency/mg
6 | Cc1c(N)nc(C(CC(N)=O)NCC(N)C(=O)NCCCCCCCCCCCCN)nc1C(=O)NC(C(=O)NC(C)C(O)C(C)C(=O)NC(C(=O)NCCc1nc(-c2nc(C(=O)NCCCNC(C)c3ccccc3)cs2)cs1)C(C)O)C(OC1OC(CO)C(O)C(O)C1OC1OC(CO)C(O)C(OC(N)=O)C1O)c1cnc[nH]1 [Compound 29, 3-((S)-1'-phenylethylamino)propylamino-(amido)N--[do-decanyl]-BLM] | 14200 mcg potency/mg | 5400 mcg potency/mg
7 | Cc1c(N)nc(C(CC(N)=O)NCC(N)C(=O)NC(Cc2ccccc2)c2ccccc2)nc1C(=O)NC(C(=O)NC(C)C(O)C(C)C(=O)NC(C(=O)NCCc1nc(-c2nc(C(=O)NCCCNC(C)c3ccccc3)cs2)cs1)C(C)O)C(OC1OC(CO)C(O)C(O)C1OC1OC(CO)C(O)C(OC(N)=O)C1O)c1cnc[nH]1 [Compound 30, 3-((S)-1'-phenylethylamino)propylamino-(amido)N--[1',2'-diphenyl-ethyl]-BLM] | 33802 mcg potency/mg | 190 mcg potency/mg
8 | Cc1c(N)nc(C(CC(N)=O)NCC(N)C(=O)NC(c2ccccc2)c2ccccc2)nc1C(=O)NC(C(=O)NC(C)C(O)C(C)C(=O)NC(C(=O)NCCc1nc(-c2nc(C(=O)NCCCNC(C)c3ccccc3)cs2)cs1)C(C)O)C(OC1OC(CO)C(O)C(O)C1OC1OC(CO)C(O)C(OC(N)=O)C1O)c1cnc[nH]1 [Compound 31, 3-((S)-1'-phenylethylamino)propylamino-(amido)N--[diphenylmethyl]-BLM] | 54645 mcg potency/mg | 430 mcg potency/mg
9 | Cc1c(N)nc(C(CC(N)=O)NCC(N)C(=O)NC2CCN(Cc3ccccc3)CC2)nc1C(=O)NC(C(=O)NC(C)C(O)C(C)C(=O)NC(C(=O)NCCc1nc(-c2nc(C(=O)NCCCNC(C)c3ccccc3)cs2)cs1)C(C)O)C(OC1OC(CO)C(O)C(O)C1OC1OC(CO)C(O)C(OC(N)=O)C1O)c1cnc[nH]1 [Compound 35, 3-((S)-1'-phenylethylamino)propylamino-(amido)N--[N--benzyl-piperazin-4-yl]-BLM] | 18537 mcg potency/mg | 2159 mcg potency/mg
10 | CCCCCCCCNC(=O)C(N)CNC(CC(N)=O)c1nc(N)c(C)c(C(=O)NC(C(=O)NC(C)C(O)C(C)C(=O)NC(C(=O)NCCc2nc(-c3nc(C(=O)NCCCN(C)CCCNCc4ccc(Cl)cc4)cs3)cs2)C(C)O)C(OC2OC(CO)C(O)C(O)C2OC2OC(CO)C(O)C(OC(N)=O)C2O)c2cnc[nH]2)n1 (centres unmarked) [Compound 40, 3-{N--methyl-N--[3-(p-chlorobenzyl)aminopropyl]amino}-propylamino-(amido)N--[octyl]-BLM] | 38200 mcg potency/mg | 1808 mcg potency/mg
11 | Cc1c(N)nc(C(CC(N)=O)NCC(N)C(=O)NC(Cc2ccccc2)c2ccccc2)nc1C(=O)NC(C(=O)NC(C)C(O)C(C)C(=O)NC(C(=O)NCCc1nc(-c2nc(C(=O)NCCCN(C)CCCNCc3ccc(Cl)cc3)cs2)cs1)C(C)O)C(OC1OC(CO)C(O)C(O)C1OC1OC(CO)C(O)C(OC(N)=O)C1O)c1cnc[nH]1 (centres unmarked) [Compound 41, 3-{N--methyl-N--[3-(p-chlorobenzyl)aminopropyl]amino}propyl-amino-(amido)N--[1,2-diphenylethyl]-BLM] | 23342 mcg potency/mg | 521 mcg potency/mg
12 | Cc1c(N)nc(C(CC(N)=O)NCC(N)C(=O)NC(C)CCCC(C)C)nc1C(=O)NC(C(=O)NC(C)C(O)C(C)C(=O)NC(C(=O)NCCc1nc(-c2nc(C(=O)NCCCN(C)CCCNCc3ccc(Cl)cc3)cs2)cs1)C(C)O)C(OC1OC(CO)C(O)C(O)C1OC1OC(CO)C(O)C(OC(N)=O)C1O)c1cnc[nH]1 (centres unmarked) [Compound 42, 3-{N--methyl-N--[3-(p-chlorobenzyl)aminopropyl]amino}propyl-amino-(amido)N--[1,5-dimethylhexyl]-BLM] | 31834 mcg potency/mg | 933 mcg potency/mg
13 | CCCCCCCCNC(=O)C(N)CNC(CC(N)=O)c1nc(N)c(C)c(C(=O)NC(C(=O)NC(C)C(O)C(C)C(=O)NC(C(=O)NCCc2nc(-c3nc(C(=O)NCCCN(C)CCCNCCc4ccc(Cl)cc4)cs3)cs2)C(C)O)C(OC2OC(CO)C(O)C(O)C2OC2OC(CO)C(O)C(OC(N)=O)C2O)c2cnc[nH]2)n1 (centres unmarked) [Compound 44] | 38750 mcg potency/mg | 1898 mcg potency/mg
14 | CCCCN(CCCC)CCCNC(=O)C(N)CNC(CC(N)=O)c1nc(N)c(C)c(C(=O)NC(C(=O)NC(C)C(O)C(C)C(=O)NC(C(=O)NCCc2nc(-c3nc(C(=O)NCCCN(C)CCCNCCc4ccc(Cl)cc4)cs3)cs2)C(C)O)C(OC2OC(CO)C(O)C(O)C2OC2OC(CO)C(O)C(OC(N)=O)C2O)c2cnc[nH]2)n1 (centres unmarked) [Compound 46, 3-{N--methyl-N--[3-(2-(p-chlorophenyl)ethyl)aminopropyl]amino}-propylamino-(amido)N--[3-(di-n-butylamino)propyl]-BLM] | 31690 mcg potency/mg | 3690 mcg potency/mg
15 | CCCCNCCCN(C)CCCNC(=O)C(N)CNC(CC(N)=O)c1nc(N)c(C)c(C(=O)NC(C(=O)NC(C)C(O)C(C)C(=O)NC(C(=O)NCCc2nc(-c3nc(C(=O)NCCC[N+](C)(CCCN(Cc4ccccc4)Cc4ccccc4)Cc4ccccc4)cs3)cs2)C(C)O)C(OC2OC(CO)C(O)C(O)C2OC2OC(CO)C(O)C(OC(N)=O)C2O)c2cnc[nH]2)n1 (centres unmarked) [Compound 50, 3-{N--methyl-N--benzyl-N--[3-(dibenzylamino)propyl]amino}-propylamino-(amido)N--[3-[N--methyl-N--(3-n-butylaminopropyl)]-aminopropyl]-BLM] | 1417 mcg potency/mg | 376 mcg potency/mg
16 | CCCCN(CCCC)CCCNC(=O)C(N)CNC(CC(N)=O)c1nc(N)c(C)c(C(=O)NC(C(=O)NC(C)C(O)C(C)C(=O)NC(C(=O)NCCc2nc(-c3nc(C(=O)NCCCN(C)CCCNCc4ccc(C#N)cc4)cs3)cs2)C(C)O)C(OC2OC(CO)C(O)C(O)C2OC2OC(CO)C(O)C(OC(N)=O)C2O)c2cnc[nH]2)n1 (centres unmarked) [Compound 61, 3-{N--methyl-N--[3-(p-cyanobenzylamino)propyl]amino}-propylamino-(amido)N--[3-(di-n-butylamino)propyl]-BLM] | 14730 mcg potency/mg | 4755 mcg potency/mg

From patent publication US4472304A, “(Amido)N-substituted bleomycins, salts thereof and process for preparation thereof” (Nippon Kayaku Kabushiki Kaisha, priority 1981, dated 1984)
